# Reference: PubChem BioAssay AID328 (DTP/NCI, 2004)
# “And” between values parts separate entries of the source, which are not always exact repeats. Equal values may be shown once. Toxic doses and inconclusive results are not listed.
# Tested on: BDF1 mice, P388 leukemia ip, median survival T/C
# Experiment: NCI In Vivo Anticancer Drug Screen. Data for tumor model P388 Leukemia (intraperitoneal) in B6D2F1 (BDF1) mice
# Conditions: endpoint: median survival time, higher = longer survival
# Procedure, shortened: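 Compound-treated tumour-bearing mice were compared with vehicle-treated controls. Survival was recorded, and the value is the treated-group measurement divided by the control-group measurement (T/C).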
# [1] = dose: 50.0 mg/kg/injection, schedule: Q01DX009 (ip), vehicle: saline with Tween-80
# [2] = dose: 100.0 mg/kg/injection, schedule: Q01DX009 (ip), vehicle: saline with Tween-80
# [3] = dose: 200.0 mg/kg/injection, schedule: Q01DX009 (ip), vehicle: saline with Tween-80
# [4] = dose: 100.0 mg/kg/injection, schedule: Q04DX003 (ip), vehicle: saline
# [5] = dose: 200.0 mg/kg/injection, schedule: Q04DX003 (ip), vehicle: saline
smiles,measurement,setting,value
Cn1c(-c2ccccc2)c2c(c1-c1ccccc1)CCCC2,T/C,"dose: 100.0 mg/kg/injection, schedule: Q04DX002 (ip), vehicle: saline with Tween-80",88 % of control
same,T/C,"dose: 200.0 mg/kg/injection, schedule: Q04DX002 (ip), vehicle: saline with Tween-80",87 % of control
CN1CCc2cc3c4cc2C1Cc1ccc(O)c(c1)Oc1ccc(cc1)CC1c2c(cc(O)c(c2O4)O3)CCN1C (stereo not given),T/C,"dose: 7.5 mg/kg/injection, schedule: Q01DX009 (ip), vehicle: saline with Tween-80",90 % of control
O=[N+]([O-])c1ccc(/C=C/c2cc(N(CCO)CCO)c3ccccc3n2)cc1,T/C,[1],94 % of control
same,T/C,[2],99 % of control
same,T/C,[3],100 % of control
NC(=O)c1ncn[nH]1,T/C,[1],95 % of control
same,T/C,"dose: 50.0 mg/kg/injection, schedule: Q04DX003 (ip), vehicle: saline with Tween-80",104 % of control
same,T/C,[2],87 % of control
same,T/C,"dose: 100.0 mg/kg/injection, schedule: Q04DX003 (ip), vehicle: saline with Tween-80",100 % of control
same,T/C,[3],104 % of control
same,T/C,"dose: 200.0 mg/kg/injection, schedule: Q04DX003 (ip), vehicle: saline with Tween-80",100 % of control
NC(N)=NCCCCCC(=O)O,T/C,[4],104 % of control
same,T/C,[5],109 % of control
same,T/C,"dose: 400.0 mg/kg/injection, schedule: Q01DX001 (ip), vehicle: saline",87 % of control
C[n+]1ccccc1/C=C/c1cccc([N+](=O)[O-])c1,T/C,"dose: 5.0 mg/kg/injection, schedule: Q04DX003 (ip), vehicle: saline with Tween-80",95 % of control
same,T/C,"dose: 10.0 mg/kg/injection, schedule: Q04DX003 (ip), vehicle: saline with Tween-80",104 % of control
same,T/C,"dose: 20.0 mg/kg/injection, schedule: Q04DX003 (ip), vehicle: saline with Tween-80",109 % of control
COc1cc2cc(c1Cl)N(C)C(=O)C[C@H](OC(=O)CBr)[C@]1(C)O[C@@H]1[C@H](C)[C@@H]1C[C@@](O)(NC(=O)O1)[C@H](OC)C=C/C=C(\C)C2,T/C,"dose: 0.8 micrograms/kg/injection, schedule: Q01DX009 (ip), vehicle: saline + alcohol",153 % of control
same,T/C,"dose: 1.5 micrograms/kg/injection, schedule: Q01DX009 (ip), vehicle: saline + alcohol",170 % of control
same,T/C,"dose: 3.1 micrograms/kg/injection, schedule: Q01DX009 (ip), vehicle: saline + alcohol",180 % of control
same,T/C,"dose: 6.2 micrograms/kg/injection, schedule: Q01DX009 (ip), vehicle: saline + alcohol",183 % of control
same,T/C,"dose: 12.5 micrograms/kg/injection, schedule: Q01DX009 (ip), vehicle: saline + alcohol",153 % of control and 200 % of control
same,T/C,"dose: 25.0 micrograms/kg/injection, schedule: Q01DX009 (ip), vehicle: saline + alcohol",162 % of control and 210 % of control
same,T/C,"dose: 50.0 micrograms/kg/injection, schedule: Q01DX009 (ip), vehicle: saline + alcohol",189 % of control and 210 % of control
same,T/C,"dose: 100.0 micrograms/kg/injection, schedule: Q01DX009 (ip), vehicle: saline + alcohol",232 % of control and 120 % of control
COc1cc(C(=O)CCC(=O)O)cc(OC)c1OC,T/C,"dose: 100.0 mg/kg/injection, schedule: Q01DX009 (ip), vehicle: Klucel (hydroxypropylcellulose) (HPC)",100 % of control
same,T/C,"dose: 200.0 mg/kg/injection, schedule: Q01DX009 (ip), vehicle: Klucel (hydroxypropylcellulose) (HPC)",100 % of control
same,T/C,"dose: 200.0 mg/kg/injection, schedule: Q04DX003 (ip), vehicle: Klucel (hydroxypropylcellulose) (HPC)",105 % of control
same,T/C,"dose: 400.0 mg/kg/injection, schedule: Q01DX009 (ip), vehicle: Klucel (hydroxypropylcellulose) (HPC)",95 % of control
same,T/C,"dose: 400.0 mg/kg/injection, schedule: Q04DX003 (ip), vehicle: Klucel (hydroxypropylcellulose) (HPC)",115 % of control
CCCCSCC(N)C(=O)OC (stereo not given),T/C,"dose: 100.0 mg/kg/injection, schedule: Q01DX009 (ip), vehicle: saline",103 % of control
same,T/C,[4],100 % of control
same,T/C,"dose: 200.0 mg/kg/injection, schedule: Q01DX009 (ip), vehicle: saline",111 % of control
same,T/C,[5],104 % of control
same,T/C,"dose: 400.0 mg/kg/injection, schedule: Q01DX009 (ip), vehicle: saline",106 % of control
same,T/C,"dose: 400.0 mg/kg/injection, schedule: Q04DX003 (ip), vehicle: saline",109 % of control
O=c1[nH]ccn2cnnc12,T/C,"dose: 100.0 mg/kg/injection, schedule: Q01DX001 (ip), vehicle: saline with Tween-80",95 % of control
same,T/C,"dose: 200.0 mg/kg/injection, schedule: Q01DX001 (ip), vehicle: saline with Tween-80",95 % of control
same,T/C,"dose: 400.0 mg/kg/injection, schedule: Q01DX001 (ip), vehicle: saline with Tween-80",104 % of control
